Read-outs that look alike come from different tables or passages of the source.
Key:
[1] = tested on: U87-MG cells; experiment: CellTiter-Glo cytotoxicity against U87-MG cells; format: cell-based; conditions: Homo sapiens, U-87 MG, 144 hours incubation, IC50 ± SD (n = 3)
Description: (§1) Apoptosis of glioma cells induced by TMZ, occurs at least 120 hours after treatment.[7] Consequently, cells were incubated for 144 hours with specified TMZ analogues in the in vitro investigations in order to obtain more reliable IC50 values.
(§2) 1321-N1 (human astrocytoma) was maintained in DMEM medium supplemented with 2 mM L-glutamine and 10% FBS. GOS-3, (human brain mixed astro-oligodendroglioma) was maintained in DMEM medium supplemented with 2 mM L-glutamine and 10% […]. U87-MG, (human glioblastoma) and SVGp12 (normal human astroglia) were maintained in EMEM medium supplemented with 2 mM L-glutamine, 1 mM sodium pyruvate and 10% FBS. All cell lines were incubated at 37 °C and 5% CO2 in a humidified incubator. Primary BTNW cultures were maintained in Ham's F10 nutrient mixture, containing 20 mM HEPES, 2 mM glutamine and 10% FBS. Primary cultures were incubated in a humidified incubator at 37 °C.
(§3) Cells were seeded in the appropriate media in each well of a Costar 96-well plate at a density of 5 × 10^2 immortalised cells; 2 × 10^3 (primary cells). The plates were incubated at 37 °C and 5% CO2 in a humidified incubator for 24 hours to allow cells to adhere. Each of the drugs tested were dissolved in DMSO to afford a 200 mM stock solution. The stock solutions were diluted with medium to afford the final working concentrations, ensuring DMSO concentration was no greater than 0.5% (v/v). Drug concentrations were added to the cells and incubated for 144 hours. After incubation, the drug concentrations were removed and replaced with 100 μL of CellTiter-Glo® and 100 μL of media. The luminescence of each well was measured on GENios Pro plate reader. The results for each of the drug concentrations were expressed as a percentage of the control wells. For cell lines, the regression equation for a polynomial line of best fit of order 2 was used to calculate the IC50. In the case of the in vitro model used in the present study, the IC50 was defined as the concentration of drug that results in a 50% reduction in oxyluciferin production. Primary culture cells were incubated with clinically relevant concentrations for 144 hours. Viability was expressed as a percentage of the control wells. Each experiment involving cell lines was carried out in triplicate of triplicates. Experiments using patient derived primary cultures were carried out in triplicate.
(§4) Initial screening of the 25 analogues was completed using the U87-MG cell line. The most promising analogues from the initial screening were taken forward and tested against the 1321-N1, GOS-3 and SVG-p12 cell lines. The results of all 4 cell lines were compiled and the analogues that were deemed to be the most promising drug candidates were tested against primary cultures at clinically relevant concentrations.

[2] = tested on: porcine liver esterase (PLE); experiment: Stability of phenolic TMZ esters on exposure to porcine liver esterase; format: in vitro ADME; conditions: pH 6, 37 °C
Description: The hydrolysis was monitored by the decrease in the peak area of the corresponding TMZ esters, however, due to sensitivity of the imidazotetrazine ring to pH, the experiments were carried out at pH 6 to avoid the formation of imidazoles. The validation of the analytical method also involved investigating the stability of the imidazotetrazine ring whilst ensuring PLE retained a significant level of activity.
A disodium phosphate, citric acid buffer (pH 6) was prepared by using disodium phosphate (Na2HPO4·12H2O, 200 mM) and citric acid (100 mM). A stock solution of 80 mg/100 mL of each of the TMZ esters (3h, 3i, 3j, 3k, 3l and 3n) were prepared in DMSO. The control reaction, without enzyme, was prepared by adding 3000 μL of buffer to the reaction vessel along with 56.25 μL of the stock solution. The test reaction, with enzyme, was prepared by adding 2999 μL of buffer to the reaction vessel along with 56.25 μL of TMZ ester. The final concentration of TMZ esters in the reaction vessels was 1.47 mg/100 mL. Porcine liver esterase (1 μL) was added to the test reaction at zero time (minutes). Both the control and test reactions were then incubated at 37 °C. Aliquots of 200 μL were transferred from the reaction vessels to 2 mL Eppendorf tubes, at 3 minute intervals for 30 minutes. The reaction was quenched by adding 200 μL of acetonitrile. […]

[3] = tested on: 1321-N1; experiment: CellTiter-Glo cytotoxicity against 1321-N1 cells; format: cell-based; conditions: Homo sapiens, 144 hours incubation, IC50 ± SD (n = 3)
Description: as §1, §2, §3, §4

[4] = tested on: GOS-3; experiment: CellTiter-Glo cytotoxicity against GOS-3 cells; format: cell-based; conditions: Homo sapiens; 144 hours incubation, IC50 ± SD (n = 3)
Description: as §1, §2, §3, §4

[5] = tested on: SVGp12; experiment: CellTiter-Glo cytotoxicity against normal SVGp12 cell line; format: cell-based; conditions: Homo sapiens, 144 hours incubation, IC50 ± SD (n = 3)
Description: as §1, §2, §3, §4

[6] = tested on: BTNW374 (MGMT+); experiment: Cell viability of patient derived primary GBM culture BTNW374 (MGMT+); format: cell-based, human
Description: (§5) Fig. 2 (A) Cell viability of BTNW914 (MGMT−) after treatment by TMZ and phenyl TMZ ester analogues at various clinically relevant concentrations and incubation for 6 days. (B) Cell Viability of BTNW374 (MGMT+) after treatment by TMZ and phenyl TMZ ester analogues at various clinically relevant concentrations. Values are reported as the percentage of viable cells ± SD, n = 3.
(§6) Cytotoxic evaluation of the analogues was completed against 4 cell lines and 2 primary GBM cultures. The human glioma cell lines, GOS-3, U87-MG and 1321-N1 along with the human astroglial cell line, SVGp12, were purchased from The European Collection of Cell Cultures (ECCAC, UK) and Deutsche Sammlung von Mikroorganismen und Zellkulturen (DMSZ, Germany). Patient derived primary GBM cultures, BTNW374 and BTNW914, were obtained from The Brain Tumour North West Tissue Bank in collaboration with The Royal Preston Hospital. Patient data for primary cells was included as part of the ESI. ^†
as §2, §3

[7] = tested on: BTNW914 (MGMT−); experiment: Cell viability of patient derived primary GBM culture BTNW914 (MGMT−); format: cell-based, human; conditions: 6 days incubation; for IC50: Homo sapiens, 144 h, read-out: IC50 against MGMT devoid GBM primary cells
Description: as §5, §6, §2, §3

[8] = cited from earlier work
[9] = initial screening, CellTiter-Glo, read-out: IC50 against U87-MG cells
[10] = lead analogues (Table 2), read-out: IC50 U87-MG

Row | Time taken to hydrolyse 50% of the ester [2] [min] | melting point [°C] | Structure (SMILES) | IC50 [1, 9] [µM] | IC50 [1, 10] [µM] | IC50 [3] [µM] | IC50 [4] [µM] | IC50 [5] [µM] | cytotoxicity against MGMT positive patient derived primary culture ([6]; human, 144 h, 75 μM) | IC50 [7] [µM] | reduction in viability against MGMT devoid GBM cells ([7]; at 75 μM) | brain-tumour concentration [8] [µM] | brain-tumour concentration as share of plasma concentration [8] | time frame of maximum intracranial concentration [8] | cytotoxicity against MGMT positive patient derived primary culture ([6]; BTNW374, clinically relevant concentrations up to 75 μM) | reduction of viability of MGMT devoid cells ([7]; at 15 and 75 μM)
1 | 13.7 | 192 | Cn1nnc2c(C(=O)Oc3ccc(C#N)cc3)ncn2c1=O [Analogue 3k, 4-Cyanophenyl 3-methyl-4-oxo-3,4-dihydroimidazo[5,1-d][1,2,3,5]tetrazine-8-carboxylate] | 138 ± 7 | 137 ± 7 | 103 ± 7 | 151 ± 4 | 36 ± 3 | generated cytotoxicity at 75 μM | < 15 |  |  |  |  |  | 
2 |  | 164 | Cc1ccc(OC(=O)c2ncn3c(=O)n(C)nnc23)cc1 [Analogue 3n, p-Tolyl 3-methyl-4-oxo-3,4-dihydroimidazo[5,1-d][1,2,3,5]tetrazine-8-carboxylate] | 376 ± 62 | 376 ± 62 | 238 ± 8 | 314 ± 38 | 215 ± 26 | generated cytotoxicity at 75 μM |  | greater than 50% |  |  |  |  | 
3 |  |  | Cn1nnc2c(C(N)=O)ncn2c1=O [TMZ, 3-methyl-4-oxo-imidazo[5,1-d][1,2,3,5]tetrazine-8-carboxamide, reference compound] | 696 ± 79 | 621 ± 66 | 783 ± 40 | 696 ± 16 | 239 ± 6 |  |  |  | 15 | approximately 20% | approximately 2 ± 0.8 hours | TMZ resistance | approximately 20%
4 | 7.3 | 172 | COc1ccc(OC(=O)c2ncn3c(=O)n(C)nnc23)cc1 [Analogue 3h, 4-Methoxyphenyl 3-methyl-4-oxo-3,4-dihydroimidazo [5,1-d][1,2,3,5] tetrazine-8-carboxylate] | 134 ± 7 | 134 ± 7 | 183 ± 1 | 183 ± 5 | 44 ± 2 | generated cytotoxicity at 75 μM | < 15 |  |  |  |  |  | 
5 |  | 190 | Cn1nnc2c(C(=O)Oc3ccc([N+](=O)[O-])cc3)ncn2c1=O [Analogue 3i, 4-Nitrophenyl 3-methyl-4-oxo-3,4-dihydroimidazo [5,1-d][1,2,3,5] tetrazine-8-carboxylate] | 142 ± 3 | 141 ± 3 | 104 ± 4 | 91 ± 1 | 39 ± 2 | generated cytotoxicity at 75 μM | < 15 |  |  |  |  |  | 

Source: article PMC9053583, “A novel series of phenolic temozolomide (TMZ) esters with 4 to 5-fold increased potency, compared to TMZ, against glioma cells irrespective of MGMT expression” (RSC Advances, 2020)
